Assay results as given in patent US8901118B2, “Compounds and methods for kinase modulation, and indications therefor” (Plexxikon Inc., priority 2010, dated 2014).

Tested on: MV-4-11 cells
Assay: MV-4-11 (leukemia) cell proliferation assay (ATPlite)
Assay type: cell-based
Settings: Homo sapiens, MV4-11, read-out: Inhibition of Cell Proliferation IC50, MV-4-11
Method: Compounds are assessed in a variety of cell based assays. For example BaF3 cells engineered with any of BCR-FMS, BCR-KIT, BCR-FLT3, BCR-NTRK1, BCR-NTRK2, and BCR-NTRK3, are used in cell proliferation assays to assess inhibitory activity of Fms, Kit, Flt-3, TrkA, TrkB, and TrkC, respectively. An MV-4-11 (leukemia) cell proliferation assay is used to assess inhibitory activity in Flt-3, and SKNSH (human neuroblastoma) cell proliferation assay is used to assess efficacy of Fms/Trk inhibitors. Additional cells may be assayed similarly to assess the efficacy of Fms/Trk inhibitors, such as MiaPaCa (human pancreatic cancer) and Capan-1 (human pancreatic carcinoma) cells. Reagent and assay conditions are as follows: • BaF3 cells: • Maintained in RPMI containing 10% FBS, 1% PenStrep, 1% NEAA, and 1% L-Glutamine, supplemented with 1 mg/mL G418 and 5% WEHI-CM (or recombinant murine IL-3). • Confluent cells are split 1:50 to 1:100 every 3-4 days. • MV-4-11 cells: • Maintained in Iscove's Modified Dulbecco's Medium containing 10% FBS. • Confluent cells are split 1:4 every 3-4 days. • SKNSH cells: RPMI containing 10% FBS. On day 1, cells are counted, then centrifuged in a conical tube for 5 minutes at 1000 rpm. The supernatant is removed and cells are re-suspended as follows: • BaF3: resuspend in growth media +1 mg/mL G418 (without WEHFIL-3) to 2×10^5 cells/mL. • MV-4-11: resuspend in growth media to 5×10^5 cells/mL. • SKNSH: resuspend in growth media to 2×10^4 cells/mL. The cells are plated (50 μL, 150 μL for SKNSH cells) in each well of a 96-well dish (Corning 3610) and incubated at 37° C. in 5% CO2 overnight, cells plated to a final concentration of cells as follows: • BaF3: 10,000 cells per well. • MV-4-11: 25,000 cells per well. • SKNSH: 3,000 cells per well. On day 2, compound at a maximum concentration of 5 mM is serially diluted 1:3 for a total of 8 point titration with DMSO as a control. A 1 μL aliquot of each dilution point is added to 249 μL growth media and 50 μL is added to a well containing cells, providing 10 μM compound for the maximum concentration point. The cells are incubated for 3 days at 37° C. in 5% CO2. For SKNSH cells, a 0.75 μL aliquot of appropriate dilution in DMSO is added to 150 μL of cells. On day 5, ATPlite 1 step Luminescence Assay System (Perkin Elmer #6016739) is brought to room temperature along with the cell cultures. ATPlite is added to each well as follows: • BaF3: 25 μL per well. • MV-4-11: 40 μL per well. • SKNSH: 20 μL per well. The cells are incubated at room temperature for 10 minutes, then luminescence is read on Safire reader. The measured luminescence correlates directly with cell number, such that the reading as a function of compound concentration is used to determine the IC50 value.
It is understood that the results of these assays may vary as assay conditions are varied. Inhibition levels determined under the conditions described herein represent a relative activity for the compounds tested under the specific conditions employed. The cell based assays are likely to show variability due to the complexity of the system and the sensitivity thereof to any changes in the assay conditions. […] Results for compounds that are tested and show substantially no inhibition below the highest tested concentration are represented as “-” in the tables below. In some instances, the compounds were not tested in all of the assays, or assay results were not valid, as indicated by NA in the tables below.

IC50: < 10 µM
SMILES: Fc1nc(NC2CCC(F)(F)CC2)ccc1Cc1c[nH]c2ncc(Cl)cc12 [Compound P-3013, [5-(5-Chloro-1H-pyrrolo[2,3-b]pyridin-3-ylmethyl)-6-fluoro-pyridin-2-yl]-(4,4-difluoro-cyclohexyl)-amine]
